Measurements reported in patent US6916923B2 (Hoffmann-La Roche Inc., priority 1999, dated 2005).

Key:
[1] = target: T1, Recombinant active human Cyclin E/CDK2 complexes (Homo sapiens, UniProt P24941); assay: CDK2 FlashPlate Assay (inhibition of Rb phosphorylation); format: biochemical; conditions: Cyclin E/CDK2, Rb substrate, 33P-ATP, 25 minutes at room temperature; read-out: Inhibition of Cdk2 - IC50 Range
T1 construct: made in house; host or cells: insect cells
Procedure: To determine inhibition of CDK2 activity, purified recombinant retinoblastoma (Rb) protein was coated on 96 well FlashPlates (New England Nuclear, Boston, Mass.). Rb is a natural substrate for phosphorylation by CDK2 (Herwig and Strauss Eurr. J. Biochem., Vol. 246 (1997) pp. 581-601 and references therein). Recombinant active human Cyclin E/CDK2 complexes were partially purified from extracts of insect cells. The active Cyclin E/CDK2 was added to the Rb-coated FlashPlates along with ^33P-ATP and dilutions of test compounds. Plates were incubated for 25 minutes at room temperature with shaking, then washed and counted in the Topcount scintillation counter (Packard Instrument Co., Downers Grove, Ill.). Dilutions of test compounds were tested in duplicate in each assay. The percent inhibition of Rb phosphorylation, which is a measure of the inhibition of CDK2 activity, was determined according to the following formula: [formula] where “test compound” refers to the average counts per minute of the test duplicates, “nonspecific” refers to the average counts per minute when no Cyclin E/CDK2 was added, and “total” refers to the average counts per minute when no compound was added.

[2] = system: colon adenocarcinoma line SW480; assay: SW480 cell-based antiproliferative (MTT) assay; conditions: Homo sapiens, SW480, 144 h, 1000 cells per well, 6 days post addition of test compound, read-out: Antiproliferative Activity SW480 (colon) Assay - IC50 Range
Procedure: (§1) The estrogen receptor negative epithelial breast carcinoma line (MDA-MB-435) was purchased from American Type Cell Culture Collection (ATCC; Rockville, Md.) and was grown in the medium recommended by ATCC. For analysis of the effect of the test compounds on growth of these cells, the cells were plated at 2000 cells per well in a 96-well tissue culture plate, and were incubated overnight at 37° C. with 5% CO2. The next day, the test compounds were dissolved in 100% dimethyl sulfoxide (DMSO) to yield a 10 mM stock solution. Each compound was diluted with sterile medium to 1 mM in a sufficient quantity to yield a final concentration of 120 μM. The compounds were then serially diluted in medium with 1.2% DMSO. One-fourth final volume of the diluted compounds was transferred to 96 well plates. Test compounds were assayed in duplicate. DMSO was added to a row of “control cells” such that the final concentration of DMSO in each well was 0.3%. Wells to which no cells were added served as the “blank.” Wells to which no inhibitor was added served as “no inhibitor control”. The plates were returned to the incubator, and 5 days post addition of test compound, were analyzed as described below.
(§2) 3-(4,5-Dimethylthiazole-2-yl)-2,5-diphenyl-2H-tetrazolium bromide (thiazolyl blue; MTT) was added to each well to yield a final concentration of 1 mg/mL. The plates were then incubated at 37° C. for 3 hours. The plates were centrifuged at 1000 rpm for 5 minutes prior to aspiration of the MTT-containing medium. The MTT-containing medium was then removed and 100 μL 100% ethanol was added to each well to dissolve the resulting formazan metabolite. To ensure complete dissolution, plates were shaken for 15 minutes at room temperature. Absorbencies were read in a microtiter plate reader (Molecular Dynamics) at a wavelength of 570 nm with a 650 nm reference. Percent inhibition was calculated by subtracting the absorbance of the blank (no cell) wells from all wells, then subtracting the division of the average absorbance of each test duplicate by the average of the controls from 1.00. Inhibitory concentrations (IC50) were determined from the linear regression of a plot of the logarithm of the concentration versus the percent inhibition.
(§3) The colon adenocarcinoma line SW480 and the colon carcinoma line HCT-116 also were obtained from the ATCC and were tested according to the same protocol provided above for MDA-MB435 cell based assay with the following modifications. Cell line SW480 was plated at 1000 cells per well and analyzed at 6 days post addition of the test compound. Cell line HCT-116 was plated at 1000 cells per well and analyzed at 4 days post addition of test compound.

[3] = system: colon carcinoma line HCT-116; assay: HCT-116 cell-based antiproliferative (MTT) assay; conditions: Homo sapiens, HCT-116, 96 h, 1000 cells per well, 4 days post addition of test compound, read-out: Antiproliferative Activity HCT 116 (colon) Assay - IC50 Range
Procedure: as §1, §2, §3

[4] = system: estrogen receptor negative epithelial breast carcinoma line (MDA-MB-435); assay: MDA-MB-435 cell-based antiproliferative (MTT) assay; conditions: Homo sapiens, MDA-MB-435, 120 h, 2000 cells per well, 5 days post addition of test compound, read-out: Antiproliferative Activity of MDA-MB435 (breast) Assay - IC50 Range
Procedure: as §1, §2

Row | melting point [°C] | IC50 [1] [nM] | IC50 [2] [nM] | IC50 [3] [nM] | IC50 [4] [nM] | Structure (SMILES)
1 | > 300 |  |  |  |  | Clc1ccccc1-c1nccnc2c1cc(Cl)c1nncc12 [Compound A4, 5-(2-chlorophenyl)-7-chloro-pyrazolo[3,4][1,4]benzodiazepine]
2 |  | 10 to 990 | 1100 to 9990 | 10000 to 30000 | 10000 to 30000 | O=[N+]([O-])c1ccc2c(c1)C(c1ccccc1Cl)=Nc1c[nH]nc1N2 [Compound A5, 5-(2-chlorophenyl)-7-nitro-pyrazolo[3,4][1,4]benzodiazepine]
3 |  | 10 to 990 | 1100 to 9990 | 10000 to 30000 | 10000 to 30000 | O=[N+]([O-])c1ccc2c(c1)C(c1ccccc1F)=Nc1c[nH]nc1N2 [Compound A13, 5-(2-fluorophenyl)-7-nitro-pyrazolo[3,4][1,4]benzodiazepine]
4 |  | 10 to 990 | 10 to 1000 | 10 to 1000 | 10 to 1000 | Cc1[nH]nc2c1N=C(c1ccccc1Cl)c1cc([N+](=O)[O-])ccc1N2 [Compound B3, 3-methyl-5-(2-chlorophenyl)-7-nitro-pyrazolo[3,4][1,4]benzodiazepine]
5 |  | 10 to 990 | 10 to 1000 | 10 to 1000 | 10 to 1000 | CCc1[nH]nc2c1N=C(c1ccccc1Cl)c1cc([N+](=O)[O-])ccc1N2 [Compound B4, 3-ethyl-5-(2-chlorophenyl)-7-nitro-pyrazolo[3,4][1,4]benzodiazepine]
6 |  | 1000 to 9990 | 10000 to 30000 | 10000 to 30000 | 10000 to 30000 | O=[N+]([O-])c1ccc2c(c1)C(c1ccccc1Cl)=Nc1c(n[nH]c1CCc1ccccc1)N2 [Compound B5, 3-(2-phenylethyl)-5-(2-chlorophenyl)-7-nitro-pyrazolo[3,4][1,4]benzodiazepine]
7 |  | 10 to 990 | 10 to 1000 | 1100 to 9990 | 10 to 1000 | CC(C)c1[nH]nc2c1N=C(c1ccccc1Cl)c1cc([N+](=O)[O-])ccc1N2 [Compound B6]
8 |  | 10 to 990 | 10 to 1000 | 1100 to 9990 | 10 to 1000 | Cc1[nH]nc2c1N=C(c1ccccc1F)c1cc(C#N)ccc1N2 [Compound B7, 3-methyl-5-(2-fluorophenyl)-pyrazolo[3,4][1,4]benzodiazepine-7-carbonitrile]
9 |  | 1000 to 9990 | 10000 to 30000 | 10000 to 30000 | 10000 to 30000 | O=[N+]([O-])c1ccc2c(c1)C(c1ccccc1Cl)=Nc1c(n[nH]c1Cc1ccccc1)N2 [Compound B8, 3-(phenylmethyl)-5-(2-chlorophenyl)-7-nitro-pyrazolo[3,4][1,4]benzodiazepine]
10 |  | 10 to 990 | 1100 to 9990 | 1100 to 9990 | 1100 to 9990 | CCOC(=O)c1ccc2c(c1)C(c1ccccc1F)=Nc1c(n[nH]c1C)N2 [Compound B9, 3-methyl-5-(2-fluorophenyl)-7-carboethoxy-pyrazolo[3,4][1,4]benzodiazepine]
11 |  | 10 to 990 | 10000 to 30000 | 10000 to 30000 | 10000 to 30000 | CCCc1[nH]nc2c1N=C(c1ccccc1Cl)c1cc([N+](=O)[O-])ccc1N2 [Compound B24, 3-propyl-5-(2-chlorophenyl)-7-nitro-pyrazolo[3,4][1,4]benzodiazepine]
12 |  | 10 to 990 | 1100 to 9990 | 1100 to 9990 | 10 to 1000 | O=[N+]([O-])c1ccc2c(c1)C(c1ccccc1Cl)=Nc1c(n[nH]c1C1CC1)N2 [Compound B25, 3-cyclopropyl-5-(2-chlorophenyl)-7-nitro-pyrazolo[3,4][1,4]benzodiazepine]
13 | 260 to 263 |  |  |  |  | Cc1cnc2c(cc(N)c3nncc32)c(-c2ccccc2Cl)n1 [Compound C4, 3-methyl-5-(2-chlorophenyl)-7-amino-pyrazolo[3,4][1,4]benzodiazepine]
14 |  | 1000 to 9990 | 10000 to 30000 | 10000 to 30000 | 10000 to 30000 | Nc1ccc2c(c1)C(c1ccccc1Cl)=Nc1c[nH]nc1N2 [Compound C5, 5-(2-chlorophenyl)-7-amino-pyrazolo[3,4][1,4]benzodiazepine]
15 | 196 to 198 |  |  |  |  | Cc1cnc2c(cc(NS(C)(=O)=O)c3nncc32)c(-c2ccccc2Cl)n1 [Compound C9, N-(3-methyl-5-(2-chlorophenyl)-pyrazolo[3,4][1,4]benzodiazepin-7-yl)-methanesulfonamide]
16 | > 340 |  |  |  |  | NC(=O)c1cnc2c(cc([N+](=O)[O-])c3nncc32)c(-c2ccccc2Cl)n1 [Compound C10, 5-(2-chlorophenyl)-7-nitro-pyrazolo[3,4][1,4]benzodiazepine-3-carboxamide]
17 | 193 to 196 |  |  |  |  | N#Cc1cnc2c(cc([N+](=O)[O-])c3nncc32)c(-c2ccccc2Cl)n1 [Compound C18, 5-(2-chlorophenyl)-7-nitro-pyrazolo[3,4][1,4]benzodiazepine-3-carbonitrile]
18 | 323 to 324 |  |  |  |  | Cc1cnc2c(cc(C(N)=O)c3nncc32)c(-c2ccccc2F)n1 [Compound C19, 3-methyl-5-(2-fluorophenyl)-pyrazolo[3,4][1,4]benzodiazepine-7-carboxamide]
19 |  | 10 to 990 | 10000 to 30000 | 10000 to 30000 |  | O=[N+]([O-])c1ccc2c(c1)C(c1ccccc1Cl)=Nc1c(n[nH]c1-c1cccs1)N2 [Compound D6]
20 |  | 10 to 990 | 10000 to 30000 | 10000 to 30000 |  | O=[N+]([O-])c1ccc2c(c1)C(c1ccccc1Cl)=Nc1c(n[nH]c1-c1ccco1)N2 [Compound D7]
21 |  | 1000 to 9990 | 10000 to 30000 | 10000 to 30000 |  | Cc1ccccc1-c1[nH]nc2c1N=C(c1ccccc1Cl)c1cc([N+](=O)[O-])ccc1N2 [Compound D37]
22 |  | 10 to 990 | 1100 to 9990 | 1100 to 9990 |  | NC(=O)c1ccc2c(c1)C(c1ccccc1F)=Nc1c[nH]nc1N2 [Compound D50]
